For data set [1], the system named is small intestine epithelia. As to conditions: reduction in epithelial resistance; cited from earlier work.
Data set [2] relates to corneal epithelium. As to the kind of experiment: Electron microscopy with ruthenium red of treated corneas (tight junction opening, morphology). As to conditions: 30 minute preincubation samples; for corneal epithelial morphology by EM: 200 μM peptide or 0.01% BAC.
Method: In order to document the in situ opening of the tight junctions, peptide treated corneas were chemically fixed at the end of a dye transport assay for morphology studies. The control and test samples were treated with the dye ruthenium red, which binds to the plasma membrane of epithelium and cannot pass the tight junctions. […] As a control, the ophthalmic preservative benzalkonium chloride (BAC) was used in place of the peptide. […] NC-1059 (Seq. ID No. 1) was compared to BAC in a paired cornea experiment: 0.01% BAC solution and 200 μM ml of the peptide were incubated individually for either 15 or 30 minutes in the test chambers. The solutions were washed. 5 mL of BSS plus was added to both chambers and then spiked with 2 mL of CF. Sample aliquots were taken (100 μL) every half hour from the endothelial chamber for 6 hours. […] At the end of the experiment treated corneas were tested for residual internalized CF and then fixed for morphological analysis by EM. […] An EM study using ruthenium red to highlight the plasma membrane and grid staining to increase the contrast was performed on the 30 minute samples used to generate FIG. 5.
The test system of data set [3] is corneal epithelium. The conditions noted are these: known; cited from earlier work.
Another data set has as its system rabbit cornea. As to the kind of experiment: Ex vivo transcorneal dye transport and corneal dye uptake in isolated rabbit cornea (perfusion chamber). The conditions noted are these: for residual internalized CF in cornea: washed, 200 μM peptide or 0.01% BAC, FIG. 6.
Data set [4] concerns corneal epithelium. As to conditions: rabbit, in vivo. Here is the method:
A series of in vivo corneal epithelial permeability experiments in unanaesthetized rabbits was also conducted. NC-1059 (Seq. ID No. 1) was prepared in BSS (200 μM) and placed inside the lower eyelid of one eye with the other eye receiving an equal amount of BSS alone. The solutions were held in place for 3 minutes and then washed with BSS. After the indicated incubation periods, both eyes received 300 μM NaF or CF and the dye was kept in place for 3 or 5 minutes. After the contact period the eyes were washed with 40 mL of BSS solution. Total uptake was measured for both the control and treated eyes with an OcuMetrics, Ocular Fluorophotometer. The fold changes between the peptide treated and untreated eyes were calculated (FIG. 7). […] It would also appear that adding the dye immediately after peptide exposure results in the highest permeation. […] The reduced uptake at the 6-hour time point documents the transient effects of the peptide in vivo. This transient effect has been observed under all assay conditions: in vitro, in situ and in vivo. In the final column, the fold increase is only 1.7±1.1 (n=2). Viewed alone, this fold increase is some-what misleading because the net amount of more hydrophobic NaF taken up in eyes is higher (7.8-fold) than with the CF dye.

Another data set deals with MDCK monolayers. As to the kind of experiment: Methotrexate uptake in epithelial monolayer experiments. In kind it is cell-based, canine. As to conditions: peptide washout experiments in culture; LC-ESI-MS. Here is the method:
This example followed the procedures of the monolayer experiments of Example 1 in order to test the uptake of fluorescently labeled methotrexate (MTX) and MTX that was not fluorescently labeled. Enhanced uptake of the fluorescently labeld MTX was not observed during co-incubation due to adverse interactions between the peptide and the modified drugs. However, in peptide washout experiments in culture, MTX uptake increased by ten-fold. Measurement of the unlabeled MTX was performed using LC-ESI-MS and a standard MTX amount for calibration and comparison purposes.

No end group written: not given here.

The text below walks through data of US7592341B2, “Peptide-enhanced corneal drug delivery” (Kansas State University Research Foundation, priority 2004, dated 2009).

Method for rabbit cornea: For rabbit in vitro studies, corneas were obtained from eyes of New Zealand White rabbits weighing 5.0 to 5.5 kg, which were anesthetized and then killed by intracardiac injection of sodium pentobarbital (97.2 mg/kg). […] For a given pair of eyes, the epithelium was scraped from one of the corneas with a scalpel blade; on the opposite eye the epithelium was left intact. […] This method prevented trauma to the corneal epithelium and distortion of the corneal curvature during clamping in the acrylic-block perfusion system. The scleral rim serves as a gasket and permits the cornea to be suspended within the corneal ring.
The retina and pigment epithelium were removed and the cornea was clamped in the corneal holder. The exposed surface area for diffusion was 1.2 cm^2 for the cornea and 1.1 cm^2 for the sclera. The perfusion chamber was made of acrylic and placed in a water jacket to maintain the temperature of the cornea and perfusion medium at 35° C. A volume of 6 mL of balanced salt solution with oxidized glutathione (BBS Plus, Alcon Laboratories Inc, Fort Worth, Tex.) at pH 7.4 was placed in the endothelial chamber. The peptides were added to the balanced salt solution with oxidized glutathione at a concentration of 1 mM. Six milliliters of each solution was added to the epithelial chamber. […] Serial 0.5-mL samples were removed from each reservoir at 30-minute intervals, and after three hours at the termination of the permeability study, the remaining 3 mL was removed. […] The corneal permeability (P) was obtained by taking into account the volume (6 mL) of the endothelial chamber and the corneal area (square centimeters), as follows: P=kin endothelial chamber volume/corneal area.
Numerous paired sets of experiments were conducted using each of the two dyes. The paired experiments included a control cornea obtained from one of the eyes of a rabbit, which was bathed in the BSS+ buffer and given 100 μL of water at the start of the experiment. In the test cornea, from the second eye of the same rabbit, 100 μL of peptide was added at time zero to produce a 150-200 μM peptide solution in BSS+. Both the water and the peptide additions were made on the apical surface of the cornea. After 20-30 minutes of incubation, dye was added to the apical bathing solution (final concentration 300 μM of dye) and allowed to remain in contact with the cornea for 6 hours. […] At 30-minute intervals, 75-100 μL aliquots were removed from the endothelial bathing chamber and the concentration of the transported dye determined. In some later experiments the corneal surfaces were rinsed 2-3 times with fresh BSS+ (wash out) to remove unbound peptide prior to the addition of the dye. The peptide is added to the apical bathing chamber.

In the case of “ZOT: zonula occludens toxin of Vibrio cholerae, 399 a.a.”, in data set [1], the onset of effects was below 20 min.

Take benzalkonium chloride [BAC]: in the data set with corneal epithelium [2], the “depth of ruthenium red staining of multilayered corneal epithelium” value was 4-5 layers and the “corneal epithelial morphology by EM” value is “altered morphology with some cells appearing swollen”. Moreover, the “concentration above which BAC causes cellular damage” value in the data set on corneal epithelium [3] was “greater than 0.005%”. Also, the “induced transport rates for CF in paired corneas, BAC vs NC-1059” value in the data set with rabbit cornea (15 min preincubation, FIG. 5A) is reported as “appear identical”. In addition, the “residual internalized CF in cornea” value with rabbit cornea (15 min preincubation) worked out at 27.8 µg. Moreover, the “residual internalized CF in cornea” value in the data set with rabbit cornea (30 min preincubation) was 40.7 µg. The “induced CF translocation in paired corneas, BAC vs NC-1059” value in the data set on rabbit cornea (30 minutes preincubation, FIG. 5B) is “begins to promote increased CF translocation after the three-hour test point”.

On to Sodium Carboxy Fluorescein [NaF], for which, in the data set on corneal epithelium [4], the “net amount of NaF taken up in eyes relative to CF dye” value came out at 7.8 fold.

As for `CN(Cc1cnc2nc(N)nc(N)c2n1)c1ccc(C(=O)N[C@@H](CCC(=O)O)C(=O)O)cc1` [MTX, methotrexate], in the data set with MDCK monolayers, the “increase of MTX uptake” value was “ten-fold”.

KKKKAARVGLGITTVLVTTIGLGVRAA [NC-1059]: the “corneal epithelial morphology by EM” value with corneal epithelium [2] is reported as “normal healthy epithelial morphology”.
